Laboratory results reported in PMC11582565, “Allostery can convert binding free energies into concerted domain motions in enzymes” (Nature Communications, 2024).

Assays:
Type in all cases: binding
[1] = molecular target: T1, adenylate kinase (AK_2+, AK) (Escherichia coli, UniProt P69441); assay: single-molecule nanopore (ClyA-AS) recording, Hill fit of LID-closed fraction
T1 construct: gene adk; full-length AK (214 residues) with C-terminal extension GKK plus Strep-tag WSHPQFEK kept; pET22b, E. coli BL21(DE3); single enzyme trapped in ClyA-AS nanopore

[2] = molecular target: T1, adenylate kinase (AK_2+, AK); assay: as above; conditions: minor component; type II blockades (12 ± 6% of blockades, alternative conformer); Hill coefficient 1.7; 400 mM KCl, 15 mM Tris, 2 mM MgCl2, pH 7.5, 22 °C, -90 mV
[3] = molecular target: T1, adenylate kinase (AK_2+, AK); assay: single-molecule nanopore (ClyA-AS) recording, ligand-induced current levels M1-M4; conditions: inhibitor; added cis or trans; 400 mM KCl, 15 mM Tris, 2 mM MgCl2, pH 7.5, 22 °C, -90 mV

T1 sequence (P69441 whole entry): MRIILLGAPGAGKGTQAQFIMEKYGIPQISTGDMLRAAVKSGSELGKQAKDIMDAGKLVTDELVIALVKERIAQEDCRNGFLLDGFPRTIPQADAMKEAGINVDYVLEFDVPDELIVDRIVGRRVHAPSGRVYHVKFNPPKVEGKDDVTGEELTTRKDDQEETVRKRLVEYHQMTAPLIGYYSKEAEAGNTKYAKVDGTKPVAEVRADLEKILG

SMILES | Kd [1] | KD [2] | single-molecule nanopore (ClyA-AS) recording, ligand-induced current levels M1-M [3]
Nc1ncnc2c1ncn2[C@@H]1O[C@H](COP(=O)(O)OP(=O)(O)O)[C@@H](O)[C@H]1O [ADP] | 45.4 ± 1.6 µM | 123.2 ± 18.1 µM | –
Nc1ncnc2c1ncn2[C@@H]1O[C@H](COP(=O)(O)OP(=O)(O)OP(=O)(O)OP(=O)(O)OP(=O)(O)OC[C@H]2O[C@@H](n3cnc4c(N)ncnc43)[C@H](O)[C@@H]2O)[C@@H](O)[C@H]1O [Ap5A, P^1,P^5-Di-(adenosine-5’)-pentaphosphate] | – | – | The addition of Ap5A to either the cis or trans side of the nanopore induced
